From US10442848B2, “Oxyntomodulin derivatives and pharmaceutical composition for treating obesity comprising the same” (HANMI SCIENCE CO., LTD, priority 2011, dated 2019)

Assays:
human glucagon receptor = target: T1, human glucagon receptor (Homo sapiens, UniProt P47871); experiment: cAMP response in CHO cell line expressing human glucagon receptor; assay type: cell-based; settings: read-out: EC50 CHO/GCGR
T1 construct: expressed in transfected cells; host or cells: CHO DG44
Procedure: The PCR product was cloned into the known animal cell expression vector x0GC/dhfr to prepare a recombinant vector x0GC/GCGR.
CHO DG44 cell line cultured in DMEM/F12 (10% FBS) medium was transfected with the recombinant vector x0GC/GCGR using LIPOFECTAMINE®, and cultured in a selection medium containing 1 mg/mL G418 and 10 nM methotraxate.
The cultured cells were washed with KRB buffer and suspended in 40 ml of KRB buffer containing 1 mM IBMX, and left at room temperature for 5 minutes. […] Then, 20 mL of cell lysis buffer was added for cell lysis, and the cell lysates were applied to a cAMP assay kit (Molecular Device, USA) to measure cAMP concentrations. EC50 values were calculated therefrom, and compared to each other.

[1] = taken for 1 year; cited from earlier work

T1 sequence (P47871 26-477): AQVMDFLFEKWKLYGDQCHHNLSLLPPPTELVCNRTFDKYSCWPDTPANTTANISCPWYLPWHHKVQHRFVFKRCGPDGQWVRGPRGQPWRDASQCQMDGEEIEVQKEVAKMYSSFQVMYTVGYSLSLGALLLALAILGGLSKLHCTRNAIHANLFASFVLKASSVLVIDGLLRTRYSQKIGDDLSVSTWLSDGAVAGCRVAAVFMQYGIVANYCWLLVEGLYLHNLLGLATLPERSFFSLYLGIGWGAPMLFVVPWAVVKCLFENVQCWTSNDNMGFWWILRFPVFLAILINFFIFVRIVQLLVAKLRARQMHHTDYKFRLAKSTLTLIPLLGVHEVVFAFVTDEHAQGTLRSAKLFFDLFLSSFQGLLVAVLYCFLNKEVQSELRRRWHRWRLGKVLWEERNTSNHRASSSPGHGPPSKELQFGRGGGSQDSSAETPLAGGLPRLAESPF

Row | Structure (SMILES) | EC50 (human glucagon receptor) | weight loss [1]
1 | CSCC[C@H](NC(=O)[C@H](CC(C)C)NC(=O)[C@H](Cc1c[nH]c2ccccc12)NC(=O)[C@H](CCC(N)=O)NC(=O)[C@@H](NC(=O)[C@H](Cc1ccccc1)NC(=O)[C@H](CCC(=O)O)NC(=O)[C@@H]1CCCCNC(=O)CC[C@H](NC(=O)[C@H](CC(=O)O)NC(=O)[C@H](CC(C)C)NC(=O)[C@H](Cc2ccc(O)cc2)NC(=O)[C@H](CCCCN)NC(=O)[C@H](CO)NC(=O)[C@H](Cc2ccc(O)cc2)NC(=O)[C@H](CC(=O)O)NC(=O)[C@H](CO)NC(=O)[C@@H](NC(=O)[C@H](Cc2ccccc2)NC(=O)[C@@H](NC(=O)CNC(=O)[C@H](CCC(N)=O)NC(=O)C(C)(C)NC(=O)[C@@H](N)Cc2c[nH]cn2)[C@@H](C)O)[C@@H](C)O)C(=O)N[C@@H](CCCCN)C(=O)N[C@@H](CCCNC(=N)N)C(=O)N[C@@H](C)C(=O)N1)C(C)C)C(=O)N[C@@H](CC(N)=O)C(=O)N[C@H](C(=O)N[C@@H](CS)C(=O)O)[C@@H](C)O [SEQ ID NO. 25] | 1.3 nM | 
2 | CSCC[C@H](NC(=O)[C@H](CC(C)C)NC(=O)[C@H](Cc1c[nH]c2ccccc12)NC(=O)[C@H](CCC(N)=O)NC(=O)[C@@H](NC(=O)[C@H](Cc1ccccc1)NC(=O)[C@H](CCC(=O)O)NC(=O)[C@H](CCCCN)NC(=O)[C@H](C)NC(=O)[C@H](CCCNC(=N)N)NC(=O)[C@H](CCCCN)NC(=O)[C@H](CCC(=O)O)NC(=O)[C@H](CC(=O)O)NC(=O)[C@H](CC(C)C)NC(=O)[C@H](Cc1ccc(O)cc1)NC(=O)[C@H](CCCCN)NC(=O)[C@H](CO)NC(=O)[C@H](Cc1ccc(O)cc1)NC(=O)[C@H](CC(=O)O)NC(=O)[C@H](CO)NC(=O)[C@@H](NC(=O)[C@H](Cc1ccccc1)NC(=O)[C@@H](NC(=O)CNC(=O)[C@H](CCC(N)=O)NC(=O)C(C)(C)NC(=O)[C@@H](N)Cc1c[nH]cn1)[C@@H](C)O)[C@@H](C)O)C(C)C)C(=O)N[C@@H](CC(N)=O)C(=O)N[C@H](C(=O)N[C@@H](CS)C(=O)O)[C@@H](C)O [SEQ ID NO. 24] | 6.95 nM | 
3 | CCCCCCCCCCC[C@@H](C[C@@H]1OC(=O)[C@H]1CCCCCC)OC(=O)[C@H](CC(C)C)NC=O [orlistat] |  | 4 kg
